Results on four compounds are retold here after ChEMBL document CHEMBL1201862, “PubChem BioAssay data set” (2004).

In assay [1] the test system is Streptococcus. The assay can be described thus: Group A Streptococcus viability loss, dose response, counter-screen for streptokinase expression inhibitor project, luminescence, BacTiterGlo (AID 1915).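 Note: potency for reduction of bacterial viability or growth.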 Type of assay: functional, organism-based. On the technique in general: A counterscreen serves to expose hits that act by an unwanted route or on another target.
Assay [2] deals with Streptococcus sp. 'group A'. Description: growth inhibition of control SK(-) GAS strain, dose response, counter-screen for streptokinase expression inhibitor project, luminescence, kanamycin, BacTiterGlo, confirmation (AID 1900). It is filed as functional, organism-based.
Assay [3] deals with T1, Streptokinase A (Streptococcus pyogenes serotype M1, UniProt P10520).
T1 sequence (P10520 whole entry): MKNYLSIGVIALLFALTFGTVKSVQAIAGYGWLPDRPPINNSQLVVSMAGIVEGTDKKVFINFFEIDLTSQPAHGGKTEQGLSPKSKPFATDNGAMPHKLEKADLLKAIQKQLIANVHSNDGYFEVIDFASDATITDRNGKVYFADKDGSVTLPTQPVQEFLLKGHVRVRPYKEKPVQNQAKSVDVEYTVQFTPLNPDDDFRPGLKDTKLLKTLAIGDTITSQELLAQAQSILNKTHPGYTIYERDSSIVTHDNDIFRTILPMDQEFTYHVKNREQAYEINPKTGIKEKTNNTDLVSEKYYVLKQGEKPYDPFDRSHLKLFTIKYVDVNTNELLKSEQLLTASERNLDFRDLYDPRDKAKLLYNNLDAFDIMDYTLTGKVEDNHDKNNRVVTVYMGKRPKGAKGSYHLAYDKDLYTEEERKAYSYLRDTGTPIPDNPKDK
The assay can be described thus: S. pyogenes streptokinase expression inhibitors, potency, dose response, plasminogen activation absorbance, OD405 (AID 1914).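 Note: secreted streptokinase activity via plasminogen activation per viability signal from cell pellet.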 Type of assay: functional, Streptococcus pyogenes M1 GAS.

Assay [4] deals with Streptococcus. The assay can be described thus: Luminescence Microorganism-Based Dose Response Follow up to Identify Compounds Cytotoxic to Streptococcus. [Related pubchem assays: 1677 (Project Summary), 1915, 1914, 1902 (Retest at Dose), 1900 (Counter Screen), 1662 (Primary HTS)]. Type of assay: functional, organism-based.
Assay [5] is described as follows: cells. Type of assay: functional, cell-based.
For assay [6], the target named is Luciferin 4-monooxygenase (Photinus pyralis, UniProt P08659). Description: firefly luciferase enzyme inhibitors, dose response, biochemical, dry powder samples, plate reader (AID 588451).
Luciferin 4-monooxygenase, sequence (P08659 whole entry): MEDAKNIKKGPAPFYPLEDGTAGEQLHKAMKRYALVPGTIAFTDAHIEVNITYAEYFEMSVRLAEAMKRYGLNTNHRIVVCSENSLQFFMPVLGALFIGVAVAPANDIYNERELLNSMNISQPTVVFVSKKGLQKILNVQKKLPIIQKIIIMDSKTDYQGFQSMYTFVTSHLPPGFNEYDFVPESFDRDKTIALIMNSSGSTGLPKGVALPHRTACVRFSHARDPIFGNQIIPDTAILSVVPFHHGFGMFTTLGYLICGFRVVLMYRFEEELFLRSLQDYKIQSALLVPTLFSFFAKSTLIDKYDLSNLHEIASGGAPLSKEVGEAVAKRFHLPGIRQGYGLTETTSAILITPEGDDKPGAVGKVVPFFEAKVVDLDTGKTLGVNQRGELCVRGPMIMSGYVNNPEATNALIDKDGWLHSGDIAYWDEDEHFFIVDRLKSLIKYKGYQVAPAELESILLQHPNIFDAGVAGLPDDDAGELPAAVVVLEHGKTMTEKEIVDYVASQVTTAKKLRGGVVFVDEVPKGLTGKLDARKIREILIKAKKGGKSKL
Assay [7] deals with H4. The assay can be described thus: Amyloid Precursor 5' UTR neuroblastoma cell reporter line Measured in Cell-Based System Using Plate Reader - 2078-04_Inhibitor_Dose_DryPowder_Activity. [Related pubchem assays (depositor defined):AID488894]. It is filed as functional. The following applies: Homo sapiens.
Assay [8] concerns H4. The assay can be described thus: inhibitors of control reporter signal in H4 cells – cell-based, plate reader, dry powder samples, counter-screen for prion reporter project, dose response (AID 540255). Type of assay: functional. As to conditions: Homo sapiens.
The nature of assay [9]: inhibitors of firefly luciferase expression or activity, dose response, H4 neuroglioma cells, luminescence (AID 1990). It is filed as functional, cell-based.
Assay [10] can be described thus: luciferase reporter signal reduction – luminescence, H4-C neuroglioblastoma cells, dose response (AID 2458).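 Note: H4 neuroglioblastoma cells stably carrying a luciferase reporter gene fusion.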 Type of assay: functional, cell-based. (In general: Reporter assays use an easily measured gene product as a stand-in for the process of interest.)
Assay [11] has as its target Tumor necrosis factor (Homo sapiens, UniProt P01375). The assay can be described thus: TNFa-triggered NF-kB activation inhibitors, SAR follow-up, cell-based, revised (AID 2337). It is filed as functional.
A short description of assay [12]: Shn3 3'UTR reporter inhibitors, dose response, cell-based, Clone20 osteoblasts, firefly luciferase, cherry-picked (AID 624132).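 Note: firefly luciferase luminescence from reporter carrying the Shn3 3'UTR in osteoblasts.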 Type of assay: functional.
A short description of assay [13]: Luminescence Cell-Based Dose Response HTS to Identify Inhibitors of 5'UTR Stem-Loop Driven Prion Protein mRNA Translation in H4 Neuroglioblastoma Cells. [Related pubchem assays: 1827 (Project Summary), 1813 (Primary HTS)]. Type of assay: functional.
For assay [14], the system named is H4. The assay can be described thus: Inhibitors of Prion Protein 5' UTR mRNA Measured in Cell-Based System Using Plate Reader - 2078-01_Inhibitor_Dose_DryPowder_Activity. [Related pubchem assays (depositor defined):AID488894]. As to conditions: Homo sapiens. Type of assay: functional.
Assay [15] is described as follows: inhibitors of SNCA 5'UTR-driven reporter translation, confirmation, H4 neuroglioma cells, luminescence (AID 1988). Type of assay: functional, cell-based.
Assay [16] can be described thus: inhibitors of SNCA 5'UTR-driven translation, confirmation, luminescence, H4 neuroglioblastoma cells, dose confirmation (AID 2454).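 Note: H4 neuroglioblastoma cells carrying an alpha-synuclein 5'UTR luciferase reporter; potency for inhibition of the luciferase signal.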 Type of assay: functional, cell-based.
The subject of assay [17] is HEK293. Description: cells. As to conditions: Homo sapiens.
For assay [18], the target named is T2, Nucleotide-binding oligomerization domain-containing protein 1 (Homo sapiens, UniProt Q9Y239).
T2 sequence (Q9Y239 whole entry): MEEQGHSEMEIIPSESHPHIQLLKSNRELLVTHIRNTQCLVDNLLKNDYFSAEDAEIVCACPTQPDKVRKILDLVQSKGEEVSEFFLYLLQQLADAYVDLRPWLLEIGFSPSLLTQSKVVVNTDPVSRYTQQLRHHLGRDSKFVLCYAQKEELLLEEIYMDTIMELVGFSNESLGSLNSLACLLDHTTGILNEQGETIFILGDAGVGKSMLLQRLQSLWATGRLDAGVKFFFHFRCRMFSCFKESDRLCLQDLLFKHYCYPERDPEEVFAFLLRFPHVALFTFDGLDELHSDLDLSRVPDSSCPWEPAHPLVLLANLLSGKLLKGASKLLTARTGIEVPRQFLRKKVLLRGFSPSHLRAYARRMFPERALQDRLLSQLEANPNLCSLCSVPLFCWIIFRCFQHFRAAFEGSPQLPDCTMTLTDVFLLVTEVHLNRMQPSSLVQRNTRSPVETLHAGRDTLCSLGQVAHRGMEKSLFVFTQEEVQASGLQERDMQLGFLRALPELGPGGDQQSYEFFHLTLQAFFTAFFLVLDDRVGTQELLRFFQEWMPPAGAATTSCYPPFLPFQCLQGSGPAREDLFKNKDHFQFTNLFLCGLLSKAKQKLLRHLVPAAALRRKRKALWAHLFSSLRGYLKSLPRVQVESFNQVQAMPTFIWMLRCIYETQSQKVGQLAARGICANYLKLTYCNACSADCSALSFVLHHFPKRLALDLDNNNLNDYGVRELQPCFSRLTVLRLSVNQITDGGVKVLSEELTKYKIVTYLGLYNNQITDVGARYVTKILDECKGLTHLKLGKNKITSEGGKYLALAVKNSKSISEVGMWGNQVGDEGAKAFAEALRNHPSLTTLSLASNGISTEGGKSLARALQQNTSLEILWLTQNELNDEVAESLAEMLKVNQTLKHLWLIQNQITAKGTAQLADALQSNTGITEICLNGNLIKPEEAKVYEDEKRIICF
The assay can be described thus: NOD1 signaling inhibitors, SAR follow-up, revised (AID 2333). Type of assay: functional.

Assay [19] is described as follows: Luminescence-based counterscreen assay for KLF5 inhibitors: dose response cell-based high throughput screening assay to identify cytotoxic compounds using the IEC-6 intestinal epithelial cell line. [Related pubchem assays: 1700 (Primary screen.), 1834 (Confirmation screen.), 1858 (Summary AID.), 1905 (Counterscreen.)]. Type of assay: functional.
In assay [20] the target is T3, Heat shock factor protein 1 (Mus musculus, UniProt P38532).
T3 sequence (P38532 whole entry): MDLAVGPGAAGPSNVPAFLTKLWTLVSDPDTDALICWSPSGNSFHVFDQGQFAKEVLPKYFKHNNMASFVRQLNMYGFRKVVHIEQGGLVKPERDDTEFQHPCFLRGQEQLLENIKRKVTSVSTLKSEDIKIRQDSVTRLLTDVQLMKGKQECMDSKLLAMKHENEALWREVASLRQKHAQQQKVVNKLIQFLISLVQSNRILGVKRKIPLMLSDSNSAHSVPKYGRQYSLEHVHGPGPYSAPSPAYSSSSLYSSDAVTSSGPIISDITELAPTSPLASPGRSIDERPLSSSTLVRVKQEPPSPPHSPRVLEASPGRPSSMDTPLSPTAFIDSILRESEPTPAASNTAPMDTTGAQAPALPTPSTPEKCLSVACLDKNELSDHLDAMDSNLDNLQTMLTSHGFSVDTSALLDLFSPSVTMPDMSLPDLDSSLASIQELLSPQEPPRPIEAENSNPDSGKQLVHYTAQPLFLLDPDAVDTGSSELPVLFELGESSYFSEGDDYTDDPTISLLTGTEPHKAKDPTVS
Description: inhibition of MG132-induced HSE-luciferase signal, confirmation, cell-based, NIH3T3, luminescence, dose retest (AID 2382).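 Note: NIH3T3 fibroblasts with HSF1-driven luciferase reporter stressed by proteasome inhibitor MG132; luminescence from HSF1-driven luciferase expression after 8 hours of MG132 stress.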 Type of assay: functional.

Assay [21] in a line: reduction of Shn3 3'UTR firefly luciferase signal, dose response, Schnurri-3 inhibitor project, cell-based, Clone20 osteoblasts, cherry-pick, set 2 (AID 720490).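 Note: actives lower the luminescence signal as inhibitors.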 It is filed as functional.
Assay [22] concerns the target Dual specificity protein phosphatase 3 (Homo sapiens, UniProt P51452). The assay can be described thus: VHR phosphatase inhibition, dose response, selectivity assay for STEP inhibitor project, biochemical (AID 602374). It is filed as functional. The following applies: read-out: IC50_Mean.
For assay [23], the target named is Genome polyprotein (dengue virus type 2, UniProt P29990). The assay can be described thus: Dengue-2 NS5 methyltransferase inhibitors, primary screen, biochemical, confirmation dose response (AID 588689). It is filed as functional.
Genome polyprotein, sequence (P29990 2492-3391 limits assumed): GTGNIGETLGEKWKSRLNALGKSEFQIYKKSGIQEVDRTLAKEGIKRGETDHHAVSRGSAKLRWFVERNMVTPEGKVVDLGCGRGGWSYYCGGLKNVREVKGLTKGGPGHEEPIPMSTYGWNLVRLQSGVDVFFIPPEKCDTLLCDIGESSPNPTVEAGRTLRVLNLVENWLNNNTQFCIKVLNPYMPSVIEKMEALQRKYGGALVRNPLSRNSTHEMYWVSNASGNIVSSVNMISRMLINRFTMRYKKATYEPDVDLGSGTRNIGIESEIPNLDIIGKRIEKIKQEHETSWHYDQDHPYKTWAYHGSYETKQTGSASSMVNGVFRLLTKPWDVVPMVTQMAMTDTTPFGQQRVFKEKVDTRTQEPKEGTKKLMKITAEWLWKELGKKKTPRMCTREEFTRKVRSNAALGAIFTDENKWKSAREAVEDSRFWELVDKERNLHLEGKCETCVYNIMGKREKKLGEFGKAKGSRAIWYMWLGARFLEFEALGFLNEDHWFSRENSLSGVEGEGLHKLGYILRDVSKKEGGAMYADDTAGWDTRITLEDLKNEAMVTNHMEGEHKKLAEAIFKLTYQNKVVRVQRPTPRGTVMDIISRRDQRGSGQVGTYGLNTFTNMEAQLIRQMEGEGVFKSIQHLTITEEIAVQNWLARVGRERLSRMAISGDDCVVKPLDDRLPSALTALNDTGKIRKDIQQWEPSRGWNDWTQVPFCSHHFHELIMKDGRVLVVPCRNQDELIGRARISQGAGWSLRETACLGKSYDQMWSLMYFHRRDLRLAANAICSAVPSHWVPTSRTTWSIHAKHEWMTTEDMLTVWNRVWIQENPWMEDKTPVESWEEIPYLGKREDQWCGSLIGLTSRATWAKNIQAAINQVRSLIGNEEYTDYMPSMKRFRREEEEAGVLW
The target in assay [24] is ORF 73 (Human herpesvirus 8, UniProt O40947). Description: inhibitors of C-LANA binding to LBS DNA, dose response, biochemical, fluorescence polarization, cherry-picked samples (AID 504725).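 Note: fluorescence polarization of a labeled DNA duplex reporting LANA DNA binding; potency is for inhibitors that block LANA binding to the DNA.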 The arrangement: species or system Human gammaherpesvirus 8. (In fluorescence polarisation assays a small probe gives low polarisation when free and higher when bound to something large.)
ORF 73, sequence (O40947 whole entry): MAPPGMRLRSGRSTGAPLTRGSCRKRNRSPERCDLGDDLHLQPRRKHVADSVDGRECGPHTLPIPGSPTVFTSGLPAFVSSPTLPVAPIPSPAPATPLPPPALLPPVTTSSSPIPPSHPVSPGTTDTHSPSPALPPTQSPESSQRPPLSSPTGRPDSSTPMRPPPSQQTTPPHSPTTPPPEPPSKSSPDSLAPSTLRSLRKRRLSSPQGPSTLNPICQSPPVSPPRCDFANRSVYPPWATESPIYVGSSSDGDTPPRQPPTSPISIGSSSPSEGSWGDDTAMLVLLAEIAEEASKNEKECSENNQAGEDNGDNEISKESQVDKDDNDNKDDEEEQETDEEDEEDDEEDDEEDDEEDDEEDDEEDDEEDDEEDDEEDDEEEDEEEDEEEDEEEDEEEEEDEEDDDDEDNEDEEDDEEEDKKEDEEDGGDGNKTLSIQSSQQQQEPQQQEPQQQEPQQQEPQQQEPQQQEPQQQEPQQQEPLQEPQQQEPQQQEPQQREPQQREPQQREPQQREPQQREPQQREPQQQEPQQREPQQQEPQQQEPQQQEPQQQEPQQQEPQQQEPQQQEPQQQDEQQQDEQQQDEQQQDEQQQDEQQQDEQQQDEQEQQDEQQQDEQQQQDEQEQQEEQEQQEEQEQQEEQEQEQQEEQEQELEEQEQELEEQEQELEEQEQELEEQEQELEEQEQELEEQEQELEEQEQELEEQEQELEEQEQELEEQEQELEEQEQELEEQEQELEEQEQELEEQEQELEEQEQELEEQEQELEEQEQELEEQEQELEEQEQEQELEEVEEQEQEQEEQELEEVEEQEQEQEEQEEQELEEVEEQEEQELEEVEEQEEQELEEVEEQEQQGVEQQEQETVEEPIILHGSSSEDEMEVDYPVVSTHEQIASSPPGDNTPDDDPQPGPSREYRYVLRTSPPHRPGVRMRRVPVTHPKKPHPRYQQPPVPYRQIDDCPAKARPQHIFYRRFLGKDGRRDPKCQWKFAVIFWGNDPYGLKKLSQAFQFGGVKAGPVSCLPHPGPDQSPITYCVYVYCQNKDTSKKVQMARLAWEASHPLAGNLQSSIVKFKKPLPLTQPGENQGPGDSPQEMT

Assay [25] addresses Tyrosine-protein phosphatase non-receptor type 5 (Homo sapiens, UniProt P54829). The assay can be described thus: STEP phosphatase inhibitors, confirmation, biochemical, fluorescence intensity, uHTS hits (AID 602372). The following applies: read-out: IC50_Mean. Type of assay: functional.
Assay [26] concerns HeLa. The assay can be described thus: HeLa cell cytotoxicity, dose response, cytotoxicity control, 24 h, cherry-picked samples (AID 504726).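 Note: potency for cytotoxicity as loss of luminescence signal.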 It is filed as functional, cell-based. The following applies: Homo sapiens.
The subject of assay [27] is Vero. The assay can be described thus: Vero cell cytotoxicity, cytotoxicity control for flavivirus capping enzyme inhibitors (AID 588742). As to conditions: Chlorocebus sabaeus. It is filed as functional.
The target of assay [28] is Tyrosine-protein phosphatase non-receptor type 11 (Homo sapiens, UniProt Q06124). The assay can be described thus: SHP2 phosphatase inhibition, dose response, selectivity assay for STEP inhibitor project, biochemical (AID 602367). As to conditions: read-out: IC50_Mean. It is filed as functional.
Tyrosine-protein phosphatase non-receptor type 11, sequence (Q06124 whole entry, the tested form may be a part): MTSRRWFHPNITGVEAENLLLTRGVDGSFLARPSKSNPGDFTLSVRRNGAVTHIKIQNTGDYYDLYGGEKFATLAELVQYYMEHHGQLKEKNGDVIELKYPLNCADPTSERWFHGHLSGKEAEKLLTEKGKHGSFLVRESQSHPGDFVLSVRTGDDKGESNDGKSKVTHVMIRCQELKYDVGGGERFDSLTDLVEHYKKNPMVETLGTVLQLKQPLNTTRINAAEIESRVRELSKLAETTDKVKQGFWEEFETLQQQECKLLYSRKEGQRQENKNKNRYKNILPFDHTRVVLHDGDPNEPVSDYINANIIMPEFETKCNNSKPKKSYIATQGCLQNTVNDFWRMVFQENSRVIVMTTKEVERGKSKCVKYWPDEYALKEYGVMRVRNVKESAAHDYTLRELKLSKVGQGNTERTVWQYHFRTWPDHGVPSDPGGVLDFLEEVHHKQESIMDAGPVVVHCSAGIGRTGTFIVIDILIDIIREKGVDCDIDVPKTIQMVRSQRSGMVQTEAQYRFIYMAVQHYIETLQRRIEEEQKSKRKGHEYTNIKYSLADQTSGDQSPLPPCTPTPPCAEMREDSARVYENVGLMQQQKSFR
In assay [29] the target is Nucleotide-binding oligomerization domain-containing protein 2 (Homo sapiens, UniProt Q9HC29). Description: PubChem AID 2334. Type of assay: functional.
Nucleotide-binding oligomerization domain-containing protein 2, sequence (Q9HC29 whole entry, the tested form may be a part): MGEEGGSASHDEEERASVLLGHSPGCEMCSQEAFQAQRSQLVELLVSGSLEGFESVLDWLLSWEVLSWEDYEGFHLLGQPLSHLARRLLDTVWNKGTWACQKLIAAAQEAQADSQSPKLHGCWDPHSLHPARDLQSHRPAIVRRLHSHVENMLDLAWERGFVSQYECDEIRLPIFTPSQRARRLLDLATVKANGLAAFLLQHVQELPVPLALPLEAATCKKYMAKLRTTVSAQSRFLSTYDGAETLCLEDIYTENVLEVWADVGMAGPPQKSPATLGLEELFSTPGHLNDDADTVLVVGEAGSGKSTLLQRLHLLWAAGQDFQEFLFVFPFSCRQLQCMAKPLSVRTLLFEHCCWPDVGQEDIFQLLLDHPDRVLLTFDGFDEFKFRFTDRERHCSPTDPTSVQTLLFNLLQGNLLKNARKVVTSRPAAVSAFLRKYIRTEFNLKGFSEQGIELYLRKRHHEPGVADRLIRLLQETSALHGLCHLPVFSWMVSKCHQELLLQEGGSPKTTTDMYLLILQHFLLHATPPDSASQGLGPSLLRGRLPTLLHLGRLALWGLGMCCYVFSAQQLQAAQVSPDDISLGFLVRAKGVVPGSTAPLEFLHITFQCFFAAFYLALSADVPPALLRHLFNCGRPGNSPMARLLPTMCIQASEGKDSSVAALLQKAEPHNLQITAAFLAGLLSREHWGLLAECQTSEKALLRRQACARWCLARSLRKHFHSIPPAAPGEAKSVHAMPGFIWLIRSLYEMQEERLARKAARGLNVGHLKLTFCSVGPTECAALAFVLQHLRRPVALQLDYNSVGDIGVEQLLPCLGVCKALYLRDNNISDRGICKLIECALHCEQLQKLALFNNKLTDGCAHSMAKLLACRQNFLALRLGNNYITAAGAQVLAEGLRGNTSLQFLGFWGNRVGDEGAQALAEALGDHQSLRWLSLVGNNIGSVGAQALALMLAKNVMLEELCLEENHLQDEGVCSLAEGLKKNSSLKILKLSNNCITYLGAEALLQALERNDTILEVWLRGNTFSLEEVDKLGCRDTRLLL

For orientation: EC50 means the concentration at which the effect is half-maximal. As a reminder, the AC50 is the midpoint of the concentration-response curve, whichever way the signal moves. Usually CC50 stands for the concentration giving 50% cytotoxicity.

The structures appear in SMILES notation. Activity calls are given as the source filed them. Where only a bound is given, the exact number is not on record here.

Tumor necrosis factor, sequence (P01375 whole entry): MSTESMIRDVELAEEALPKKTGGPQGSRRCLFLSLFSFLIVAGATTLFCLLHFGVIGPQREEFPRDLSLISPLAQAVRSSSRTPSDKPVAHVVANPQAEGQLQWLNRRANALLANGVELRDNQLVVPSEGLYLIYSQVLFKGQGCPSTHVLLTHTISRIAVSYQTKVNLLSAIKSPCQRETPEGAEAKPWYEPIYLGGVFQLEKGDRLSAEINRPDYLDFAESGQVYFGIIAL
Tyrosine-protein phosphatase non-receptor type 5, sequence (P54829 whole entry): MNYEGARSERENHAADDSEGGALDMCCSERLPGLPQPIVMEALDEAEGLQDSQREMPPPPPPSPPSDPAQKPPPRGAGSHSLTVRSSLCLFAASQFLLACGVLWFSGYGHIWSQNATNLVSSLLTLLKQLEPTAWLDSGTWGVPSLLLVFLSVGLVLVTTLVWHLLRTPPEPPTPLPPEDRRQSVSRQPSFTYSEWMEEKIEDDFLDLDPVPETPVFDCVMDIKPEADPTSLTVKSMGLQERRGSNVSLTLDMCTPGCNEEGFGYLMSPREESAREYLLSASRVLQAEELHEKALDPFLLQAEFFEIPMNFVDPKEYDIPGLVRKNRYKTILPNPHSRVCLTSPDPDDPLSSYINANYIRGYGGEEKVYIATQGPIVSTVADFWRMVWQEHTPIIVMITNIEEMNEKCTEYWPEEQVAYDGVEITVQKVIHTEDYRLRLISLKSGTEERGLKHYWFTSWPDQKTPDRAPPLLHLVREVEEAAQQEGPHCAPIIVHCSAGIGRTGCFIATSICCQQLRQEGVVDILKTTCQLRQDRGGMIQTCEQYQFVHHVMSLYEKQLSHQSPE

Regarding `CCOC(=O)c1c(NC(=O)c2cccs2)sc(CC)c1-c1cccs1`, the EC50 in assay [1] is > 150 µM (not active); in assay [2] it was 47.6 µM (active); in [3], 9.89 µM (active); in [4], > 500 µM (not active).

Turning to `Cc1cc(C(=O)COC(=O)c2ccccc2O)c(C)n1Cc1cccs1`, the 50% effective concentration (EC50) in [5] was 0.146 µM (active); in [9], < 0.1 µM (active); in assay [10], 0.102 µM (active); in assay [13], < 0.1 µM (active); in assay [15], < 0.1 µM (active); in [16], 0.159 µM (active). Besides, in assay [20], the EC50 is < 0.16 µM (active). Moreover, the concentration at half-maximal activity (AC50) in assay [6] is 12.2 µM (active); in assay [7], 0.00332 µM (active); in assay [8], 0.066 µM (active); in [12], 8.99 µM (active); in assay [14] it was 0.013 µM (active); in assay [21], < 0.135 µM (active). Moreover, the IC50 in [11] is < 0.0391 µM (active); in assay [17], > 20 µM (inactive); in assay [18] it was 0.285 µM (active); in [19], > 39.8 µM (not active).

Take `CC1=C(O)C(O)=C(C2=C(O)C(O)=C(C)C(=O)C2=O)C(=O)C1=O`: the IC50 in assay [22] was 1.27 µM (active); in assay [23], 28.3 µM (active); in assay [25], > 80 µM (inactive); in [28], < 0.16 µM (active). For the same compound, the AC50 in assay [24] was 312 µM (active); in [26], 61.8 µM (active). In addition, the 50% cytotoxic concentration (CC50) in [27] is 31.7 µM (active).

As for `O=C(Nc1sc2c(c1C(=O)O)CCCC2)C(=O)N1CCOCC1`, the IC50 in [29], in assay [11], in assay [17] and in assay [18] was > 20 µM (inactive) each time.
